The record followed here is US9655849B2, “Solid particulate compositions comprising coenzyme Q10” (Particle Dynamics International, LLC, priority 2011, dated 2017).

Where “and” joins values, the source holds several entries; their conditions need not be identical. Equal values may be shown once.

The data set can be described thus: CoQ10 Starting Material Particle Size Analysis, laser diffraction, dry dispersion. The format is physicochemical. The protocol:
This example details the results of particle size analysis for a commercially available CoQ10 starting material. Dry samples of KANEKA Q10 powder were analyzed using laser diffraction to obtain a measurement of particle size characteristics.
Particle size analysis of the CoQ10 starting material was conducted using a dry dispersion method. A […] HELOS equipped with a RODOS dispersion module and a R3 lens was employed for the analysis. Prior to the analysis the sample was evaluated using optical microscopy. Particles were well dispersed and ranged in size from approximately 5 microns to approximately 90 microns.

The mark [1] stands for this setting: dry powder, Avg. of analyses A-F.
Where [2] appears, read: dry powder, single analyses A-F.

Turning to `COC1=C(OC)C(=O)C(C/C=C(\C)CC/C=C(\C)CC/C=C(\C)CC/C=C(\C)CC/C=C(\C)CC/C=C(\C)CC/C=C(\C)CC/C=C(\C)CC/C=C(\C)CCC=C(C)C)=C(C)C1=O` [KANEKA Q10], under setting [1], the “x10, Particulate Size Distribution (Number Basis)” value is recorded as 0.55 μm; the “x10, Particulate Size Distribution (Volume Basis)” value came to 4.76 μm; the “x50, Particulate Size Distribution (Number Basis)” value is given as 0.77 μm; the “x50, Particulate Size Distribution (Volume Basis)” value turned out to be 15.16 μm. For the same compound, under setting [1], the “x90, Particulate Size Distribution (Number Basis)” value was found to be 1.30 μm; the “x90, Particulate Size Distribution (Volume Basis)” value came out at 40.52 μm; the “x95, Particulate Size Distribution (Number Basis)” value amounted to 1.78 μm; the “x95, Particulate Size Distribution (Volume Basis)” value is 50.83 μm. For the same compound, under setting [1], the “x99, Particulate Size Distribution (Number Basis)” value is 5.11 μm and the “x99, Particulate Size Distribution (Volume Basis)” value is listed as 71.32 μm. Moreover, under setting [2], the “x10, Particulate Size Distribution (Number Basis)” value was determined as 0.55 μm; the “x10, Particulate Size Distribution (Volume Basis)” value was 4.99 μm and 5.21 μm and 4.63 μm and 4.16 μm and 4.77 μm and 4.80 μm; the “x50, Particulate Size Distribution (Volume Basis)” value is 15.36 μm and 15.89 μm and 15.04 μm and 14.37 μm and 15.15 μm; the “x90, Particulate Size Distribution (Volume Basis)” value was 40.65 μm and 41.41 μm and 40.36 μm and 39.46 μm and 40.75 μm and 40.46 μm. Also, under setting [2], the “x95, Particulate Size Distribution (Number Basis)” value was 1.79 μm and 1.74 μm and 1.77 μm and 1.80 μm and 1.78 μm; the “x95, Particulate Size Distribution (Volume Basis)” value was 50.84 μm and 51.76 μm and 50.62 μm and 49.96 μm and 51.11 μm and 50.68 μm; the “x99, Particulate Size Distribution (Number Basis)” value was 5.30 μm and 5.13 μm and 4.98 μm and 4.93 μm and 5.14 μm and 5.20 μm; the “x99, Particulate Size Distribution (Volume Basis)” value is 71.36 μm and 71.75 μm and 71.16 μm and 70.79 μm and 71.66 μm and 71.20 μm. In addition, where the note is “volume basis”, the “portion of the total volume attributable to particulates greater than 15 μm in diameter” value was “more than 50%”.
